From patent publication US20080255193A1, “Pharmaceutical Composition” (priority 2005, published 2008)
Values after ≈ are worked out from the molar mass of the structure shown.

Assay: Aqueous solubility of talnetant
Format: physicochemical
Conditions: aqueous medium
Description: Talnetant has low aqueous solubility (approximately 0.03 mg/ml at pH 1 and 0.001 mg/ml, at pH 7.0). Typically drugs with low aqueous solubility are absorbed slowly across the walls of the gastrointestinal tract (GIT) due to poor dissolution of the solid in the GIT leading to a small diffusive driving force.

CC[C@H](NC(=O)c1c(O)c(-c2ccccc2)nc2ccccc12)c1ccccc1 [Talnetant, (S)-(−)-N-(α-ethylbenzyl)-3-hydroxy-2-phenylquinoline-4-carboxamide]
solubility (aqueous buffer, pH 7.0): ~1 µg/mL (≈ 2.61 µM)
solubility (pH 1, simulated gastric fluid): ~30 µg/mL (≈ 78.4 µM)
